Laboratory results reported in patent US20240057587A1, “ORGANIC AMMONIUM SALT AND HYDROGEN-BONDING MATERIAL TREATMENT AGENT USING SAME” (MIYOSHI OIL & FAT CO.,LTD., priority 2019, published 2024).
Where two headings read alike, the source gives them in different places.

Columns and labels:
[1] = Metal oxide dispersibility test (zirconium oxide); format: physicochemical; settings: 0.25 g compound, 0.50 g water, 0.10 g zirconium oxide (IV); for Zirconium oxide dispersibility: visual
[2] = Metal oxide dispersibility test (titanium oxide); format: physicochemical; settings: 0.25 g compound, 0.50 g water, 0.10 g titanium oxide (IV); for Titanium oxide dispersibility: visual
[3] = Carbon nanotube dispersibility test; format: physicochemical; settings: 0.25 g compound, 0.75 g water, 0.025 g carbon nanotubes; for Carbon nanotube dispersibility: visual
[4] = Organic dye dispersibility test; format: physicochemical; settings: 0.2 g compound, 0.7 g water; for Dye dispersibility: 0.1 g Vali Fast Black 3830, ultrasonic dispersion, after 24 hours, visual
[5] = for Redispersibility Zirconium oxide: dispersion liquid dried at 50° C. under reduced pressure for three hours, 0.50 g water added, remixed, visual
[6] = for Redispersibility Titanium oxide: dispersion liquid dried at 50° C. under reduced pressure for three hours, 0.50 g water added, remixed, visual
[7] = for Redispersibility Dye: Vali Fast Black 3830 dispersion liquid dried at 50° C. under reduced pressure for three hours, 0.7 g water added, remixed, visual
[8] = 0.25 g compound, 0.50 g water, 0.10 g zinc oxide; for Zinc oxide dispersibility: visual
[9] = 0.25 g compound, 0.50 g water, 0.10 g barium titanate; for Barium titanate dispersibility: visual
[10] = biological target: T1, urease (Canavalia ensiformis, UniProt P07374); format: biochemical, sword bean; settings: solid sample, 40° C., 80% RH, after 30 days
T1 sequence (P07374 whole entry, looked up): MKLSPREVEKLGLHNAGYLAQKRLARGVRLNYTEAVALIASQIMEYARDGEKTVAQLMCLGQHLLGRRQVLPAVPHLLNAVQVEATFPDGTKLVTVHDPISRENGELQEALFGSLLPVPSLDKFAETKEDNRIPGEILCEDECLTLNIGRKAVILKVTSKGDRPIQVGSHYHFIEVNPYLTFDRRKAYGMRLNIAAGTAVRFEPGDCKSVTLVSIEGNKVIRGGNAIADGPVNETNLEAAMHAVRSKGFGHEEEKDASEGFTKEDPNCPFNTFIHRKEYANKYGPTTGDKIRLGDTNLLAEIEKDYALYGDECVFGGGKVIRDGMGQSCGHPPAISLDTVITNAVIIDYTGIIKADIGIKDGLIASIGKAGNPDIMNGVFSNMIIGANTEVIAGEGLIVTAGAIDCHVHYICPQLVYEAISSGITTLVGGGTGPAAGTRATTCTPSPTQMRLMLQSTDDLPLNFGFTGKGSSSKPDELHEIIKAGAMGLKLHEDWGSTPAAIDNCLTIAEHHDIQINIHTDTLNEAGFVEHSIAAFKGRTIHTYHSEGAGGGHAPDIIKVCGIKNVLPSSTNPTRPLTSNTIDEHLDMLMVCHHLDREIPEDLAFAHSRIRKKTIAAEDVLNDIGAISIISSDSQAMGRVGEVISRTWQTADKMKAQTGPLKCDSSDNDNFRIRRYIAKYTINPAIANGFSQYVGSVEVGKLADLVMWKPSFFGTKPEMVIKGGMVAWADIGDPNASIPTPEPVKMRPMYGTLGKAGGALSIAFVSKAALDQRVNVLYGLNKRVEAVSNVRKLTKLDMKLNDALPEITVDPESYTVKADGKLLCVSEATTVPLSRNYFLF

[11] = biological target: T1, urease; format: biochemical, sword bean; settings: urease in 50 wt % aqueous solution of compound; 40° C., 80% RH; after 30 days; Stabilizer:Enzyme = 1:1
[12] = biological target: T2, cytochrome C (Equus caballus, UniProt P00004); test: Protein long-term stability (IR and UV spectrum), solid sample; design: species or system Horse; settings: cytochrome C, solid sample, 40° C., 80% RH, after 30 days
T2 construct: a reagent produced by NACALAI TESQUE, INC; (Horse Heart, molecular weight 12384) was used; purchased NACALAI TESQUE, INC; host or cells: horse heart (tissue origin)
T2 sequence (P00004 whole entry): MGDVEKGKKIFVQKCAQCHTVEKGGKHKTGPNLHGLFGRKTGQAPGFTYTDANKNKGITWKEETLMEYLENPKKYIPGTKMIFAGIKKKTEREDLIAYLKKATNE

[13] = biological target: T2, cytochrome C; test: Protein long-term stability, 50% aqueous solution; design: species or system Horse; settings: cytochrome C in 50 wt % aqueous solution of compound; 40° C.; after 30 days; 1:1
Protocol: At first, changes in amide absorption by IR spectrum were precisely observed, and there were confirmed the higher-order structures of protein (turn, α-helix, random coil, β-sheet). The amide I region (1,600 to 1,700 cm^−1) and the amide II region (1,500 to 1,600 cm^−1) were measured by ATR method using a Fourier transform infrared spectrophotometer (FT/IR-6100 by JASCO Corporation), and peaks were then detected based on a difference(s) between a cytochrome C-free organic ammonium salt sample (blank) and a cytochrome C-containing organic ammonium salt sample (sample).
Further, the activity state of cytochrome C (Fe^2+: reduced form, Fe^3+: oxidized form) was confirmed via absorptions in UV spectrum. The measurement was conducted using an ultraviolet-visible spectrophotometer and a quartz cell having an optical path width of 2 mm, immediately after diluting the cytochrome C-containing organic ammonium salt sample to 1% with a 50 mM phosphate buffer of pH 7.4 (prepared using 50 mM potassium dihydrogen phosphate and 50 mM dipotassium hydrogen phosphate).

[14] = tested on: DNA; test: DNA long-term stability, 50% aqueous solution; settings: 40° C., 80% RH
[15] = biological target: T1, urease; format: biochemical, sword bean; settings: urease, 40° C., 80% RH, after 30 days, 1:1; for Enzyme activity retention rate (%) (after 30 days) Stabilizer:Enzyme = 1:1, Mixed by mortar: solid sample mixed by mortar; for Enzyme activity retention rate (%) (after 30 days) Stabilizer:Enzyme = 1:1, Solvent distilled away from dissolution solution: solid sample

SMILES	Enzyme activity retention rate(%) (after 30 days) Stabilizer: Enzyme = 0.1:1 [10]	Enzyme activity retention rate(%) (after 30 days) Stabilizer: Enzyme = 1:1 [10]	Enzyme activity retention rate(%) (after 30 days) Stabilizer: Enzyme = 10:1 [10]	Enzyme activity retention rate(%) (after 30 days) Stabilizer: Enzyme = 1:1 [11]	Protein long-term stability (after 30 days) Stabilizer: Protein = 0.1:1 [12]	Protein long-term stability (after 30 days) Stabilizer: Protein = 1:1 [12]	Protein long-term stability (after 30 days) Stabilizer: Protein = 10:1 [12]	Protein long-term stability (after 30 days) Stabilize:Protein = 1:1 [13]	DNA long-term stability (after 30 days) Stabilizer: DNA = 1:1 [14]	Enzyme activity retention rate (%) (after 30 days) Stabilizer:Enzyme = 1:1, Mixed by mortar [15]	Enzyme activity retention rate (%) (after 30 days) Stabilizer:Enzyme = 1:1, Solvent distilled away from dissolution solution [15]	Zirconium oxide dispersibility [1]	Titanium oxide dispersibility [2]	Carbon nanotube dispersibility [3]	Dye dispersibility [4]	Redispersibility Zirconium oxide [5]	Redispersibility Titanium oxide [6]	Redispersibility Dye [7]	Zinc oxide dispersibility [8]	Barium titanate dispersibility [9]	also measured
CCCC[N+](CCCC)(CCCC)CCCC.[Br-] [Comparative example 12, tetra-n-butylammonium bromide, reference compound]	–	–	–	–	–	–	–	–	–	–	–	–	–	–	–	–	–	–	–	–	dispersed state of zirconium oxide (visual) [1]: zirconium oxide immediately precipitated, and therefore did not disperse; dispersed state of titanium oxide (visual) [2]: a low dispersibility was observed as titanium oxide had precipitated; dispersed state of carbon nanotubes (visual) [3]: the carbon nanotubes did not disperse, but precipitated; mixed and dispersed state of organic dye after 24 hours (visual) ([4]; 0.1 g Vali Fast Black 3830, ultrasonic dispersion): the organic dye did not disperse, but precipitated; dispersed state after redispersion (visual) ([5]; dried zirconium oxide dispersion, 0.50 g of water added): precipitates were observed immediately after performing mixing with the mixer; dispersed state after redispersion (visual) ([6]; dried titanium oxide dispersion, 0.50 g of water added): precipitates were observed immediately after performing mixing with the mixer; dispersed state after redispersion (visual) ([7]; dried Vali Fast Black 3830 dispersion, 0.7 g of water added): precipitates were observed immediately after performing mixing with the mixer; dispersed state of zinc oxide (visual) [8]: zinc oxide did not disperse, but immediately precipitated; dispersed state of barium titanate (visual) [9]: barium titanate did not disperse, but immediately precipitated
NC(CO)CO [Working example 26]	10	81	25	18	◯	◯	◯	○	○	13	81	○	○	○	○	–	–	–	–	–	–
CCC(N)(CO)CO [Working example 27]	8	74	20	11	◯ ◯	◯ ◯	◯ ◯	○ ○	○ ○	10	74	○ ○	○ ○	○ ○	–	–	–	–	–	–	–
NC(CO)(CO)CO [Working example 28]	15	65	35	15	◯	◯	◯	○ ○ ○	○ ○	12	65	○ ○ ○ ○	○ ○ ○ ○	○ ○	○ ○ ○ ○	○ ○ ○ ○	○ ○ ○ ○	○ ○ ○ ○	○ ○ ○ ○	○ ○ ○ ○	–
CCC(N)(CO)CO [Working example 35]	9	16	22	10	–	–	–	–	○ ○	0	16	–	–	–	–	–	–	–	–	–	–
NC(CO)(CO)CO [Working example 36]	27	41	45	39	◯	◯	◯	○ ○ ○	–	7	41	○ ○ ○ ○	○ ○ ○ ○	–	○ ○ ○ ○	○ ○ ○ ○	○ ○ ○ ○	○ ○ ○ ○	○ ○ ○ ○	○ ○ ○ ○	–
NC(CO)(CO)CO [Working example 48]	18	48	52	30	◯	◯	◯	○	○ ○	9	48	○ ○ ○ ○	○ ○ ○ ○	○ ○	○ ○ ○ ○	○ ○ ○ ○	○ ○ ○ ○	○ ○ ○ ○	○ ○ ○ ○	○ ○ ○ ○	–
NC(CO)(CO)CO [Working example 109]	–	–	–	–	–	–	–	–	–	–	–	○ ○ ○ ○	○ ○ ○ ○	–	○ ○ ○ ○	○ ○ ○ ○	○ ○ ○ ○	○ ○ ○ ○	○ ○ ○ ○	○ ○ ○ ○	–
